# No end group written: not given here.
# Experiments:
# Assay in all cases: 26RFa-induced calcium mobilization, receptor mutants
# [1] = target: T1, QRFPR mutants (Homo sapiens, UniProt Q96P65); assay type: cell-based
# T1 construct: expressed in transfected cells; host or cells: HEK293, transient transfection by electroporation
# Experimental: (§1) The gene encoding the WT QRFPR, PrPRR, KISS1R, NPFF1R, or NPFF2R was subcloned into the pcDNA3.0 vector with the addition of an N-terminal HA tag. All of the mutations used for functional studies were generated by QuickChange PCR and verified by DNA sequencing.
# (§2) HEK293 cells were obtained from ATCC (Manassas, VA, USA) and cultured in DMEM supplemented with 10% (v/v) FBS, 100 mg/L penicillin, and 100 mg/L streptomycin in 5% CO2 at 37 °C. For transient transfection, ~2.5 × 10^6 cells were mixed with 2 µg plasmids in 200 µL transfection buffer, and electroporation was carried out with a Scientz-2C electroporation apparatus (Scientz Biotech, Ningbo, China). The experiments were carried out 24 h after transfection.
# (§3) For QRFPR, PrRPR, and KISS1R, HEK293 cells transfected with WT receptor or its mutants were seeded at a density of 4 × 10^4 per well into 96-well culture plates and incubated for 24 h at 37 °C in 5% CO2. For NPFF1R and NPFF2R, plasmids were transfected into HEK293 cells stably expressing Gα16. On the next day, cells were incubated with 2 μmol/L Fluo-4 AM in HBSS supplemented with 5.6 mmol/L D-glucose and 250 μmol/L sulfinpyrazone at 37 °C for 45 min. After washing, cells were added with 50 μL HBSS and incubated at room temperature for 10 min, then 25 μL agonist buffer was dispensed into the well using a FlexStation III microplate reader (Molecular Devices), and intracellular calcium change was recorded at an excitation wavelength of 485 nm and an emission wavelength of 525 nm. EC50 and Emax values for each curve were calculated by Prism 8.0 software (GraphPad Software).
# [2] = target: T2, QRFPR mutants (Homo sapiens, UniProt Q96P65, C118A); assay type: cell-based; details: HEK293, QRFPR C118^3.25A; HEK293, Fluo-4; mean ± S.E.M., n ≥ 3
# T2 construct: expressed in transfected cells; host or cells: HEK293, transient transfection by electroporation
# Experimental: as §1, §2, §3
# [3] = target: T3, QRFPR mutants (Homo sapiens, UniProt Q96P65, C201A); assay type: cell-based; details: HEK293, QRFPR C201^ECL2A; HEK293, Fluo-4; mean ± S.E.M., n ≥ 3
# T3 construct: expressed in transfected cells; host or cells: HEK293, transient transfection by electroporation
# Experimental: as §1, §2, §3
# [4] = target: T4, QRFPR mutants (Homo sapiens, UniProt Q96P65, C98A); assay type: cell-based; details: HEK293, QRFPR C98^2.57A; HEK293, Fluo-4; mean ± S.E.M., n ≥ 3
# T4 construct: expressed in transfected cells; host or cells: HEK293, transient transfection by electroporation
# Experimental: as §1, §2, §3
# [5] = target: T5, QRFPR mutants (Homo sapiens, UniProt Q96P65, D307A); assay type: cell-based; details: HEK293, QRFPR D307^7.27A; HEK293, Fluo-4; mean ± S.E.M., n ≥ 3
# T5 construct: expressed in transfected cells; host or cells: HEK293, transient transfection by electroporation
# Experimental: as §1, §2, §3
# [6] = target: T6, QRFPR mutants (Homo sapiens, UniProt Q96P65, E297A); assay type: cell-based
# T6 construct: expressed in transfected cells; host or cells: HEK293, transient transfection by electroporation
# Experimental: as §1, §2, §3
# [7] = target: T7, QRFPR mutants (Homo sapiens, UniProt Q96P65, F192A); assay type: cell-based; details: HEK293, QRFPR F192^ECL2A; HEK293, Fluo-4; mean ± S.E.M., n ≥ 3
# T7 construct: expressed in transfected cells; host or cells: HEK293, transient transfection by electroporation
# Experimental: as §1, §2, §3
# [8] = target: T8, QRFPR mutants (Homo sapiens, UniProt Q96P65, F289A); assay type: cell-based
# T8 construct: expressed in transfected cells; host or cells: HEK293, transient transfection by electroporation
# Experimental: as §1, §2, §3
# [9] = target: T9, QRFPR mutants (Homo sapiens, UniProt Q96P65, F289L); assay type: cell-based
# T9 construct: expressed in transfected cells; host or cells: HEK293, transient transfection by electroporation
# Experimental: as §1, §2, §3
# [10] = target: T10, QRFPR mutants (Homo sapiens, UniProt Q96P65, F322A); assay type: cell-based; details: HEK293, QRFPR F322^7.43A; HEK293, Fluo-4; mean ± S.E.M., n ≥ 3
# T10 construct: expressed in transfected cells; host or cells: HEK293, transient transfection by electroporation
# Experimental: as §1, §2, §3
# [11] = target: T11, QRFPR mutants (Homo sapiens, UniProt Q96P65, H293A); assay type: cell-based; details: HEK293, QRFPR H293^6.55A; HEK293, Fluo-4; mean ± S.E.M., n ≥ 3
# T11 construct: expressed in transfected cells; host or cells: HEK293, transient transfection by electroporation
# Experimental: as §1, §2, §3
# [12] = target: T12, QRFPR mutants (Homo sapiens, UniProt Q96P65, L222A); assay type: cell-based
# T12 construct: expressed in transfected cells; host or cells: HEK293, transient transfection by electroporation
# Experimental: as §1, §2, §3
# [13] = target: T13, QRFPR mutants (Homo sapiens, UniProt Q96P65, N110A); assay type: cell-based; details: HEK293, QRFPR N110^23.49A; HEK293, Fluo-4; mean ± S.E.M., n ≥ 3
# T13 construct: expressed in transfected cells; host or cells: HEK293, transient transfection by electroporation
# Experimental: as §1, §2, §3
# [14] = target: T14, QRFPR mutants (Homo sapiens, UniProt Q96P65, Q105A); assay type: cell-based; details: HEK293, QRFPR Q105^2.63A; HEK293, Fluo-4; mean ± S.E.M., n ≥ 3
# T14 construct: expressed in transfected cells; host or cells: HEK293, transient transfection by electroporation
# Experimental: as §1, §2, §3
# [15] = target: T15, QRFPR mutants (Homo sapiens, UniProt Q96P65, Q318A); assay type: cell-based; details: HEK293, QRFPR Q318^7.39A; HEK293, Fluo-4; mean ± S.E.M., n ≥ 3
# T15 construct: expressed in transfected cells; host or cells: HEK293, transient transfection by electroporation
# Experimental: as §1, §2, §3
# [16] = target: T16, QRFPR mutants (Homo sapiens, UniProt Q96P65, W286A); assay type: cell-based; details: HEK293, QRFPR W286^6.48A; HEK293, Fluo-4; mean ± S.E.M., n ≥ 3
# T16 construct: expressed in transfected cells; host or cells: HEK293, transient transfection by electroporation
# Experimental: as §1, §2, §3
# [17] = target: T17, QRFPR mutants (Homo sapiens, UniProt Q96P65, Y214A); assay type: cell-based; details: HEK293, QRFPR Y214^5.38A; HEK293, Fluo-4; mean ± S.E.M., n ≥ 3
# T17 construct: expressed in transfected cells; host or cells: HEK293, transient transfection by electroporation
# Experimental: as §1, §2, §3
# [18] = system: QRFPR mutants; assay type: cell-based, human
# Experimental: as §1, §2, §3
# T8 sequence (Q96P65 whole entry F289A): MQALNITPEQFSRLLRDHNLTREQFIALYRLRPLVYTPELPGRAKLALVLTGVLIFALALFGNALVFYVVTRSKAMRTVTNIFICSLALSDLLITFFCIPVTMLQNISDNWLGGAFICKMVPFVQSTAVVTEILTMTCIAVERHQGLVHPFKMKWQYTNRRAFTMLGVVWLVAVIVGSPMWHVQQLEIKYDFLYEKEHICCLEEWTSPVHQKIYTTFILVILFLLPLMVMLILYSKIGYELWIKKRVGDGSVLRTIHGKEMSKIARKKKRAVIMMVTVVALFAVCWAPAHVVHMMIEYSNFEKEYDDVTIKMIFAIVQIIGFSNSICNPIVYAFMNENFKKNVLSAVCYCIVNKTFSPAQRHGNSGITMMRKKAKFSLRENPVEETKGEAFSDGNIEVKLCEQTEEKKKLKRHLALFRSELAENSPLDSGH
# T9 sequence (Q96P65 whole entry F289L): as the sequence (Q96P65 whole entry F289A) above, with A289L counted along it
# T12 sequence (Q96P65 whole entry L222A): as the sequence (Q96P65 whole entry F289A) above, with L222A, A289F counted along it
# T1 sequence (Q96P65 39-431, change not shown): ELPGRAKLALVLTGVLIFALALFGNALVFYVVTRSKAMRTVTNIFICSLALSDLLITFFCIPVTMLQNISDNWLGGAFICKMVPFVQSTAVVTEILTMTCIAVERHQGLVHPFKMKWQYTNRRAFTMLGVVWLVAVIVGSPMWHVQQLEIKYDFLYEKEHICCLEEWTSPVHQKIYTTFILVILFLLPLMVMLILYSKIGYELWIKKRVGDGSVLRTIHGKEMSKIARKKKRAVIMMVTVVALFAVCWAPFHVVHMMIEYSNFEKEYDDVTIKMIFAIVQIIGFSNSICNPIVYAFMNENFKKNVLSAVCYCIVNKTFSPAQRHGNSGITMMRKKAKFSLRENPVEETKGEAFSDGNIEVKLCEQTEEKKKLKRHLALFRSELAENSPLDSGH
# T6 sequence (Q96P65 whole entry E297A): as the sequence (Q96P65 whole entry F289A) above, with A289F, E297A counted along it
# T2 sequence (Q96P65 whole entry C118A): as the sequence (Q96P65 whole entry F289A) above, with C118A, A289F counted along it
# T4 sequence (Q96P65 whole entry C98A): as the sequence (Q96P65 whole entry F289A) above, with C98A, A289F counted along it
# T10 sequence (Q96P65 whole entry F322A): as the sequence (Q96P65 whole entry F289A) above, with A289F, F322A counted along it
# T17 sequence (Q96P65 whole entry Y214A): as the sequence (Q96P65 whole entry F289A) above, with Y214A, A289F counted along it
# T13 sequence (Q96P65 whole entry N110A): as the sequence (Q96P65 whole entry F289A) above, with N110A, A289F counted along it
# T16 sequence (Q96P65 whole entry W286A): as the sequence (Q96P65 whole entry F289A) above, with W286A, A289F counted along it
# T11 sequence (Q96P65 whole entry H293A): as the sequence (Q96P65 whole entry F289A) above, with A289F, H293A counted along it
# T14 sequence (Q96P65 whole entry Q105A): as the sequence (Q96P65 whole entry F289A) above, with Q105A, A289F counted along it
# T3 sequence (Q96P65 whole entry C201A): as the sequence (Q96P65 whole entry F289A) above, with C201A, A289F counted along it
# T15 sequence (Q96P65 whole entry Q318A): as the sequence (Q96P65 whole entry F289A) above, with A289F, Q318A counted along it
# T5 sequence (Q96P65 whole entry D307A): as the sequence (Q96P65 whole entry F289A) above, with A289F, D307A counted along it
# T7 sequence (Q96P65 whole entry F192A): as the sequence (Q96P65 whole entry F289A) above, with F192A, A289F counted along it
substance,measurement,setting,value
ASGPLGTLAEELSSYSRRKGGFSFRF-NH2 [26RFa],Emax,"[1]; HEK293, QRFPR Δ1-38, HEK293, Fluo-4, mean ± S.E.M., n ≥ 3",14.7 ± 1.5%
same,peptide-induced QRFPR activity,[1]; QRFPR Δ1–38 (entire N-terminus truncated),abolished the peptide-induced QRFPR activity
same,Emax,[2],1.43 ± 0.55%
same,Emax,[3],1.84 ± 1.5%
same,Emax,[4],48.4 ± 0.88%
same,Emax,[5],106 ± 0.64%
same,Emax,"[6]; HEK293, QRFPR E297^6.59A, HEK293, Fluo-4, mean ± S.E.M., n ≥ 3",107 ± 0.8%
same,effect of mutation on 26RFa activity,[6]; QRFPR 6.59 to alanine (printed D^6.59),almost did not affect 26RFa activity
same,Emax,[7],87.4 ± 0.93%
same,Emax,"[8]; HEK293, QRFPR F289^6.51A, HEK293, Fluo-4, mean ± S.E.M., n ≥ 3",54.4 ± 1.4%
same,effect of mutation on 26RFa activity,[8]; QRFPR F289^6.51 to alanine,dramatic decrease in the activity of 26RFa
same,Emax,"[9]; HEK293, QRFPR F289^6.51L, HEK293, Fluo-4, mean ± S.E.M., n ≥ 3",112 ± 5.1%
same,effect of mutation on 26RFa activity,[9]; QRFPR F289^6.51 to leucine,did not impact the 26RFa activity
same,Emax,[10],11.1 ± 0.26%
same,Emax,[11],95.5 ± 1.6%
same,effect of L^5.46 on peptide activity,"[12]; 26RFa, QRFPR L^5.46 (Supplementary Fig. S3)",negligible effects
same,Emax,"[12]; HEK293, QRFPR L222^5.46A, HEK293, Fluo-4, mean ± S.E.M., n ≥ 3",99 ± 1.3%
same,Emax,[13],98.6 ± 2.3%
same,Emax,[14],83.8 ± 3.1%
same,Emax,[15],1.69 ± 0.66%
same,Emax,[16],1.8 ± 0.38%
same,Emax,[17],1.42 ± 0.7%
same,role of Q^3.32 and Q/H^7.39 in activity,"[18]; 26RFa, QRFPR",critical for the activity
same,effect of mutation on QRFPR activation,"[18]; alanine substitution of W111^23.50 and two conserved cysteines (C118^3.25, C201^45.50)",notably hampered QRFPR activation
same,role of residues in 26RFa-induced receptor activation,"[18]; residues around Arg25-Phe26-amide except I218^5.42 (E203, Q318, Y214, V129, F289, Q125, C98, F322)",essential for 26RFa-induced receptor activation

# Source: paper PMC11148045, “Structural basis for recognition of 26RFa by the pyroglutamylated RFamide peptide receptor” (Cell Discovery, 2024)
